Measured values as given in the supplement of paper PMC4862054.

Legend:
Conditions in all cases: incubation time: 72 h
HCC1599 = assay: drug sensitivity score (DSS), CellTiter-Glo (DSS (AUC-based score)); higher = stronger drug effect (viability inhibition or cytotoxicity); extreme values may be limits of the assay
In short: (§1)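 Compound was dispensed into 384-well plates at 5 concentrations in 10-fold steps spanning a 10,000-fold range chosen for each compound, and 20 µl of breast cancer cell suspension was added before 72 h of incubation. CellTox Green fluorescence was read at 485/520 nm, followed by CellTiter-Glo luminescence after 10 min at room temperature. Values on each plate were normalised to 0.1 % DMSO and a positive kill control. The drug sensitivity score came from the area under the fitted dose-response curve.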

CAL-51 [1] = assay: as above
In short: as §1

MDA-MB-231 [2] = assay: as above
In short: as §1

CAL-120 = assay: as above
In short: as §1

CAL-148 [3] = assay: as above
In short: as §1

DU-4475 [4] = assay: as above
In short: as §1

MDA-MB-453 [5] = assay: as above
In short: as §1

CAL-85-1 [6] = assay: as above
In short: as §1

HCC1937 = assay: normalised viability (% of control), CellTiter-Blue; higher = more viable cells (about 100 = DMSO control)
In short: (§2)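 Vehicle (100) and a positive kill control (0) anchored the normalisation of each plate, and Z'-factor was used for quality control. Breast cancer cell lines in 20 µl suspension were incubated 72 h over compound in 5 µl medium in 384-well plates, followed by CellTiter-Blue at 560/590 nm. The value is normalised viability at a single listed concentration of the series.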

SK-BR-3 = assay: as above
In short: as §2

Hs578T = assay: as above
In short: as §2

CAL-51 [7] = assay: as above
In short: as §2

MDA-MB-231 [8] = assay: as above
In short: as §2

BT-549 = assay: as above
In short: as §2

MDA-MB-468 = assay: as above
In short: as §2

HDQ-P1 = assay: as above
In short: as §2

CAL-148 [9] = assay: as above
In short: as §2

MFM-223 = assay: as above
In short: as §2

DU-4475 [10] = assay: as above
In short: as §2

HCC1143 = assay: as above
In short: as §2

BT-474 = assay: as above
In short: as §2

MDA-MB-453 [11] = assay: as above
In short: as §2

MDA-MB-436 = assay: as above
In short: as §2

CAL-85-1 [12] = assay: as above
In short: as §2

CCc1cncnc1N1CCN(Cc2nc3ccc(C(F)(F)F)cc3[nH]2)CC1
Conditions | drug sensitivity score
CAL-51 [1] | 7.14
CAL-85-1 [6] | 0
CAL-120 | 0.0627
CAL-148 [3] | 0
DU-4475 [4] | 0
HCC1599 | 0
MDA-MB-231 [2] | 0
MDA-MB-453 [5] | 1.08

normalised viability [%]
Conditions | 3 nM | 10 nM | 30 nM | 100 nM | 1000 nM | 10000 nM
BT-474 | – | 115 | – | – | 118 | 83.7
BT-549 | – | 78.4 | – | – | 102 | 59.9
CAL-51 [7] | 94.3 | – | 90 | 91.5 | – | –
CAL-85-1 [12] | 102 | – | 97.4 | 101 | – | –
CAL-148 [9] | 119 | – | 95.8 | 114 | – | –
DU-4475 [10] | 103 | – | 91.6 | 107 | – | –
HCC1143 | – | 103 | – | – | 106 | 109
HCC1937 | – | 108 | – | – | 107 | 86.8
HDQ-P1 | 116 | – | 108 | 108 | – | –
Hs578T | – | 95.4 | – | – | 122 | 88.8
MDA-MB-231 [8] | – | 96.9 | – | – | 98.2 | 106
MDA-MB-436 | – | 107 | – | – | 106 | 91.7
MDA-MB-453 [11] | 101 | – | 110 | 103 | – | –
MDA-MB-468 | – | 107 | – | – | 108 | 103
MFM-223 | – | 103 | – | – | 122 | 82.7
SK-BR-3 | – | 105 | – | – | 104 | 117

CC[C@@H]1C(=O)N(C)c2cnc(Nc3ccc(C(=O)NC4CCN(C)CC4)cc3OC)nc2N1C1CCCC1 [BI 2536]
Conditions | drug sensitivity score
CAL-51 [1] | 17.7
CAL-85-1 [6] | 14.1
CAL-120 | 11.2
CAL-148 [3] | 5.51
DU-4475 [4] | 7.02
HCC1599 | 12.4
MDA-MB-231 [2] | 13.3
MDA-MB-453 [5] | 11.5

normalised viability [%]
Conditions | 0.3 nM | 1 nM | 3 nM | 10 nM | 100 nM | 1000 nM
BT-474 | – | 116 | – | – | 89.1 | 100
BT-549 | – | 85.2 | – | – | 38.6 | 44.2
CAL-51 [7] | 99.2 | – | 90.5 | 63.9 | – | –
CAL-85-1 [12] | 101 | – | 79.7 | 40.5 | – | –
CAL-148 [9] | 96.9 | – | 92.9 | 26.2 | – | –
DU-4475 [10] | 105 | – | 86.5 | 50.6 | – | –
HCC1143 | – | 109 | – | – | 51.3 | 52.4
HCC1937 | – | 107 | – | – | 24 | 28.3
HDQ-P1 | 126 | – | 77 | 74.2 | – | –
Hs578T | – | 114 | – | – | 29.9 | 65.3
MDA-MB-231 [8] | – | 103 | – | – | 41.8 | 41
MDA-MB-436 | – | 95.7 | – | – | 65.3 | 78.5
MDA-MB-453 [11] | 97.8 | – | 56.6 | 32.6 | – | –
MDA-MB-468 | – | 107 | – | – | 52.2 | 55.1
MFM-223 | – | 87.2 | – | – | 48.6 | 48.5
SK-BR-3 | – | 99.7 | – | – | 18.4 | 23.1

C=CC(=O)Nc1cc2c(Nc3ccc(F)c(Cl)c3)ncnc2cc1OCCCN1CCOCC1 [Canertinib]
Conditions | drug sensitivity score
CAL-51 [1] | 14.1
CAL-85-1 [6] | 13.6
CAL-120 | 3.29
CAL-148 [3] | 5.7
DU-4475 [4] | 0.331
HCC1599 | 3.8
MDA-MB-231 [2] | 8.75
MDA-MB-453 [5] | 6.35

normalised viability [%]
Conditions | 3 nM | 10 nM | 30 nM | 100 nM | 1000 nM | 10000 nM
BT-474 | – | 93.7 | – | – | 34.4 | 16.3
BT-549 | – | 103 | – | – | 90.7 | 2.56
CAL-51 [7] | 110 | – | 105 | 105 | – | –
CAL-85-1 [12] | 82.5 | – | 67 | 64.2 | – | –
CAL-148 [9] | 81.8 | – | 88.8 | 75.6 | – | –
DU-4475 [10] | 107 | – | 113 | 96.8 | – | –
HCC1143 | – | 74.9 | – | – | 89 | 22.6
HCC1937 | – | 62.8 | – | – | 73.1 | 13.6
HDQ-P1 | 106 | – | 90.6 | 76 | – | –
Hs578T | – | 96 | – | – | 108 | 1.26
MDA-MB-231 [8] | – | 91.4 | – | – | 70.6 | 6.79
MDA-MB-436 | – | 139 | – | – | 43.5 | 10.5
MDA-MB-453 [11] | 105 | – | 86.9 | 72.6 | – | –
MDA-MB-468 | – | 89.2 | – | – | 52.9 | 1.77
MFM-223 | – | 94.8 | – | – | 78.6 | 19.7
SK-BR-3 | – | 71.9 | – | – | 19.9 | 12.9

O=C(O)C1(C(=O)O)CCC1.[NH2-].[NH2-].[Pt+2] [Carboplatin]
Conditions | drug sensitivity score
CAL-51 [1] | 0
CAL-85-1 [6] | 0
CAL-120 | 0
CAL-148 [3] | 0
DU-4475 [4] | 0
HCC1599 | 0
MDA-MB-231 [2] | 0
MDA-MB-453 [5] | 0

normalised viability [%]
Conditions | 3 nM | 10 nM | 30 nM | 100 nM | 1000 nM | 10000 nM
BT-474 | – | 127 | – | – | 121 | 113
BT-549 | – | 83.4 | – | – | 92 | 87.7
CAL-51 [7] | 104 | – | 99 | 96.2 | – | –
CAL-85-1 [12] | 98 | – | 82.2 | 99.6 | – | –
CAL-148 [9] | 90 | – | 96 | 95.4 | – | –
DU-4475 [10] | 99 | – | 74.5 | 89.4 | – | –
HCC1143 | – | 79.8 | – | – | 87.1 | 87.7
HCC1937 | – | 82.3 | – | – | 103 | 54.2
HDQ-P1 | 108 | – | 107 | 103 | – | –
Hs578T | – | 105 | – | – | 94.1 | 109
MDA-MB-231 [8] | – | 85.8 | – | – | 113 | 93.7
MDA-MB-436 | – | 80.3 | – | – | 95.9 | 82.2
MDA-MB-453 [11] | 113 | – | 93.3 | 102 | – | –
MDA-MB-468 | – | 100 | – | – | 98.9 | 83.3
MFM-223 | – | 86 | – | – | 98.4 | 48.7
SK-BR-3 | – | 100 | – | – | 103 | 113
